From ChEMBL document CHEMBL4665724, “Structure-activity relationship analysis of dammarane-type natural products as muscle-type creatine kinase activators” (Bioorg Med Chem Lett, 2020)
Active and inactive are the calls of the source. The calls are words filed in the database; no cut-off is given here.

Key:
[1] = target: Creatine kinase M-type (Homo sapiens) (UniProt P06732); test: Activation of human CK-MM assessed as increase in enzyme activity at 40 uM relative to control
[2] = target: Creatine kinase M-type (Homo sapiens) (UniProt P06732); test: Binding affinity to recombinant human His-tagged CK-MM at 20 uM by Biolayer Interferometry analysis
[3] = target: Creatine kinase M-type (Homo sapiens) (UniProt P06732); test: Activation of human CK-MM assessed as increase in enzyme activity at 80 uM relative to control
[4] = target: Creatine kinase M-type (Homo sapiens) (UniProt P06732); test: Activation of human CK-MM assessed as increase in enzyme activity at 5 uM relative to control
[5] = target: Creatine kinase M-type (Homo sapiens) (UniProt P06732); test: Activation of human CK-MM assessed as increase in enzyme activity at 10 uM relative to control
[6] = target: Creatine kinase M-type (Oryctolagus cuniculus) (UniProt P00563); test: Binding affinity to rabbit CK-MM at 20 uM
Creatine kinase M-type (Oryctolagus cuniculus), sequence (P00563 whole entry): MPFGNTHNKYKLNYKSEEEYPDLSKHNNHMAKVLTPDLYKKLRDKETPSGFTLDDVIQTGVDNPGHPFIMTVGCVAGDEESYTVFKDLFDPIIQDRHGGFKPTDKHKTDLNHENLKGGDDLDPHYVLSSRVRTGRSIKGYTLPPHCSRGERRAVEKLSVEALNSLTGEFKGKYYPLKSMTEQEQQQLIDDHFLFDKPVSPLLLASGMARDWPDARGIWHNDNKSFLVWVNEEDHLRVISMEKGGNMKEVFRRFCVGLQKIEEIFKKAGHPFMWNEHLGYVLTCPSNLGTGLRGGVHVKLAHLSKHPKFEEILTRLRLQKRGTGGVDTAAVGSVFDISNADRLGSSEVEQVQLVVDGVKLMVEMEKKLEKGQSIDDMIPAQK

[7] = target: Creatine kinase M-type (Oryctolagus cuniculus) (UniProt P00563); test: Activation of rabbit CK-MM assessed as increase in enzyme activity at 40 uM relative to control
[8] = target: Creatine kinase M-type (Oryctolagus cuniculus) (UniProt P00563); test: Activation of rabbit CK-MM assessed as increase in enzyme activity at 10 uM relative to control
[9] = target: Creatine kinase M-type (Homo sapiens) (UniProt P06732); test: Activation of human CK-MM assessed as increase in enzyme activity at 5 to 80 uM; conditions: dose microM 5-80
[10] = target: Creatine kinase M-type (Homo sapiens) (UniProt P06732); test: Activation of human CK-MM assessed as increase in enzyme activity at 20 uM relative to control
[11] = target: Creatine kinase M-type (Oryctolagus cuniculus) (UniProt P00563); test: Activation of rabbit CK-MM assessed as increase in enzyme activity at 20 uM relative to control
[12] = target: Creatine kinase M-type (Oryctolagus cuniculus) (UniProt P00563); test: Activation of rabbit CK-MM assessed as increase in enzyme activity at 80 uM relative to control
[13] = target: Creatine kinase M-type (Oryctolagus cuniculus) (UniProt P00563); test: Activation of rabbit CK-MM assessed as increase in enzyme activity at 5 to 80 uM; conditions: dose microM 5-80

Creatine kinase M-type (Homo sapiens), sequence (P06732 whole entry): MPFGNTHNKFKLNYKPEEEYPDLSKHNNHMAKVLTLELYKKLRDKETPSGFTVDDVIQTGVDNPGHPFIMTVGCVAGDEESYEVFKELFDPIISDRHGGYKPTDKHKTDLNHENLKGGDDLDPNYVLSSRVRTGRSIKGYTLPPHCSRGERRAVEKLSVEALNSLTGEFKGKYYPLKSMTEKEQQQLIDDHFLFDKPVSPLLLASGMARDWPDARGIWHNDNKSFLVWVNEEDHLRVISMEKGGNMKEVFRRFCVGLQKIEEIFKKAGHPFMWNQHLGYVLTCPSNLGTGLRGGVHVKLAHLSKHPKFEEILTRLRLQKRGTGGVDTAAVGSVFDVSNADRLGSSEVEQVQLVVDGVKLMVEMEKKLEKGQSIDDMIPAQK

## CC(C)(O)CCC[C@](C)(O)[C@H]1CC[C@]2(C)[C@@H]1[C@H](O)C[C@@H]1[C@@]3(C)CC[C@H](O)C(C)(C)[C@@H]3CC[C@]12C
[1]
  Activity: 7.5%
[2]; filed as activator
  Activity: Active
[3]
  Activity: 15.6%
[4]
  Activity: 17.3%
[5]
  Activity: 8.6%

## CC(C)=CCC[C@](C)(O)[C@H]1CC[C@]2(C)[C@@H]1[C@H](O)C[C@@H]1[C@@]3(C)CC[C@H](O)C(C)(C)[C@@H]3CC[C@]12C
[1]; filed as activator
  Activity: 54.3%
[2]; filed as activator
  Activity: Active
[3]; filed as activator
  Activity: 53.2%
[6]; filed as activator
  Activity: Active
[7]
  Activity: 4.2%
[8]
  Activity: 9.3%
[4]
  Activity: 29.6%
[9]; filed as activator
  Activity: Dose-dependent effect
[10]
  Activity: 39.2%
[5]
  Activity: 35.4%
[11]
  Activity: 4.3%

## CC(C)=CCC[C@@](C)(O)[C@H]1CC[C@]2(C)[C@@H]1[C@H](O)C[C@@H]1[C@@]3(C)CC[C@H](O)C(C)(C)[C@@H]3CC[C@]12C
[1]
  Activity: 14.3%
[2]; filed as activator
  Activity: Active
[3]
  Activity: 10.2%
[4]
  Activity: 12.6%
[10]
  Activity: 23.5%
[5]
  Activity: 14.7%

## CC(C)=CCC[C@](C)(O)[C@H]1CC[C@]2(C)[C@@H]1[C@H](O)C[C@@H]1[C@@]3(C)CC[C@H](O)C(C)(C)[C@@H]3[C@@H](O)C[C@]12C
[1]
  Activity: 19.7%
[2]; filed as activator
  Activity: Active
[3]
  Activity: 13.6%
[6]; filed as activator
  Activity: Active
[7]
  Activity: 3.4%
[4]
  Activity: 19.1%
[10]
  Activity: 32.2%
[5]
  Activity: 20.6%
[12]
  Activity: 2.1%
[11]
  Activity: 4.4%

## CC1(C)CCC[C@](C)([C@H]2CC[C@]3(C)[C@@H]2[C@H](O)C[C@@H]2[C@@]4(C)CC[C@H](O)C(C)(C)[C@@H]4CC[C@]23C)O1
[1]
  Activity: 14.4%
[2]; filed as activator
  Activity: Active
[3]
  Activity: 15.4%
[10]
  Activity: 7.1%

## CC(C)=CCC[C@](C)(O)[C@H]1CC[C@]2(C)[C@@H]1[C@H](O)C[C@@H]1[C@@]3(C)CC[C@H](O[C@@H]4O[C@H](CO)[C@@H](O)[C@H](O)[C@H]4O)C(C)(C)[C@@H]3CC[C@]12C
[6]; filed as activator
  Activity: Active
[7]
  Activity: 3.5%
[11]
  Activity: 3.1%

## CC(C)=CCC[C@](C)(O[C@@H]1O[C@H](CO)[C@@H](O)[C@H](O)[C@H]1O)[C@H]1CC[C@]2(C)[C@@H]1[C@H](O)C[C@@H]1[C@@]3(C)CC[C@H](O)C(C)(C)[C@@H]3[C@@H](O[C@@H]3O[C@H](CO)[C@@H](O)[C@H](O)[C@H]3O)C[C@]12C
[13]
  Activity: inactive
[6]
  Activity: inactive

## CC(C)=C[C@H]1C[C@](C)(O)[C@@H]2[C@H]3CC[C@@H]4[C@@]5(C)CC[C@H](O)C(C)(C)[C@@H]5CC[C@@]4(C)[C@@]34CO[C@@]2(C4)O1
[1]
  Activity: 5.7%
[2]
  Activity: inactive
[4]
  Activity: 16.9%
[5]
  Activity: 11.9%

## CC1(C)CCC[C@](C)([C@H]2CC[C@]3(C)[C@@H]2[C@H](O)C[C@@H]2[C@@]4(C)CC[C@H](O)C(C)(C)[C@@H]4[C@H](O)C[C@]23C)O1
[2]
  Activity: inactive
[9]
  Activity: inactive

## CC(C)=CCC[C@](C)(O[C@@H]1O[C@H](CO)[C@@H](O)[C@H](O)[C@H]1O)[C@H]1CC[C@]2(C)[C@@H]1[C@H](O)C[C@@H]1[C@@]3(C)CC[C@H](O[C@@H]4O[C@H](CO)[C@@H](O)[C@H](O)[C@H]4O[C@@H]4O[C@H](CO)[C@@H](O)[C@H](O)[C@H]4O)C(C)(C)[C@@H]3CC[C@]12C
[13]
  Activity: inactive
[6]
  Activity: inactive

## CC1(C)[C@@H](O)CC[C@]2(C)[C@H]3C[C@@H](O)[C@@H]4[C@@H]([C@@](C)(O)CCC(=O)O)CC[C@@]4(C)[C@]3(C)CC[C@@H]12
[1]; filed as activator
  Activity: 49.8%
[2]; filed as activator
  Activity: Active
[3]; filed as activator
  Activity: 52.1%
[4]
  Activity: 37.6%
[9]; filed as activator
  Activity: Dose-dependent effect
[10]; filed as activator
  Activity: 49.7%
[5]
  Activity: 37.4%

## CC(C)(O)[C@H]1CC[C@@](C)([C@H]2CC[C@]3(C)[C@@H]2[C@H](O)C[C@@H]2[C@@]4(C)CC[C@H](O)C(C)(C)[C@@H]4CC[C@]23C)O1
[2]
  Activity: inactive
[9]
  Activity: inactive
